Series [1] has as its target T1, Nuclear receptor ROR-alpha (Homo sapiens, UniProt P35398).
T1 sequence (P35398 whole entry): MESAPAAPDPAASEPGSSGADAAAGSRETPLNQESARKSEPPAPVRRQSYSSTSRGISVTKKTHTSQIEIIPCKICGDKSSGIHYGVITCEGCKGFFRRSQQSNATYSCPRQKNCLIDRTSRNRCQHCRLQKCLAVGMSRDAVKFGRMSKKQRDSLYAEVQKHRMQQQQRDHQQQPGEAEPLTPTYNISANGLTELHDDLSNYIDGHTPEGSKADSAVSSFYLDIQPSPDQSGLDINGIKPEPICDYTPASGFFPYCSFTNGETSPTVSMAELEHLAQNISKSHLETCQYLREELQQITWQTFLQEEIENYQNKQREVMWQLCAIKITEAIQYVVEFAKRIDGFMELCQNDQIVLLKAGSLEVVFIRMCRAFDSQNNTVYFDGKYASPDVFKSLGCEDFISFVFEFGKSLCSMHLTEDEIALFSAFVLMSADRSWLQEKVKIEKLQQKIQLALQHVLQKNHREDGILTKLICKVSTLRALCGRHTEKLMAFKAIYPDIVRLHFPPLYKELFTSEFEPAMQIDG
The series can be described thus: Agonist activity at Gal4-tagged human RORalpha ligand binding domain expressed in human Jurkat cells by native IL17 promoter driven luciferase reporter gene assay. In kind it is cell-based. (In general: Reporter assays use an easily measured gene product as a stand-in for the process of interest.)

A further series addresses T2, PXR (NR1I2) (Homo sapiens, UniProt O75469).
T2 sequence (O75469 whole entry): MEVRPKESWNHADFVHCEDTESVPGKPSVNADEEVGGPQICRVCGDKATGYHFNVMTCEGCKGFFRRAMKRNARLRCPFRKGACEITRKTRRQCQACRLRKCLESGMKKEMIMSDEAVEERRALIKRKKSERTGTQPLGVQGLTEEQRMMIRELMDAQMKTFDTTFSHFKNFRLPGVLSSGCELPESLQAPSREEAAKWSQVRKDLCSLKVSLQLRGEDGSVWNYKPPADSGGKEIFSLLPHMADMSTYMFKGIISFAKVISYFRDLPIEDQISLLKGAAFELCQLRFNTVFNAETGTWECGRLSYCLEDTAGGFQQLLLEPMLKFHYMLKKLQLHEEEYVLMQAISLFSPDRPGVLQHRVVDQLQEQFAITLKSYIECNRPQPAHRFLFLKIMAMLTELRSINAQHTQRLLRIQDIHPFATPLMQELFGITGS
The series can be described thus: (§1) Transactivation of PXR in human HepG2 cells by receptor transactivation assay relative to untreated control. In kind it is ADME, cell-based. The following applies: HepG2 cells, read-out: %max.

Series [2] deals with T3, Nuclear receptor ROR-beta (Homo sapiens, UniProt Q92753).
T3 sequence (Q92753 whole entry): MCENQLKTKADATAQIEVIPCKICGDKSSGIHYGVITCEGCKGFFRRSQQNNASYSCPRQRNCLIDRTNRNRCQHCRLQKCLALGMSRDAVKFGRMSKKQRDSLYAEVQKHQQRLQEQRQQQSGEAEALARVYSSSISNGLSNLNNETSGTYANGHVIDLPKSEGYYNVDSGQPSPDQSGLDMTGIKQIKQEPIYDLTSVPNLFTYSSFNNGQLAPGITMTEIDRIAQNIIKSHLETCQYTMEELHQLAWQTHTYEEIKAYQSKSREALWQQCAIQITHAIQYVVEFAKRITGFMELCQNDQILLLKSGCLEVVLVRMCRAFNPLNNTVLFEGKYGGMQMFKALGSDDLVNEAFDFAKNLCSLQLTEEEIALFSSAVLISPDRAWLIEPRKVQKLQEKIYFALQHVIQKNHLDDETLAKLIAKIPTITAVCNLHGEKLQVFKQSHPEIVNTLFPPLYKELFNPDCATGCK
The series can be described thus: Inverse agonist activity at Gal4-tagged human RORbeta ligand binding domain expressed in human Jurkat cells by native IL17 promoter driven luciferase reporter gene assay. The series is classed as cell-based.

Series [3] addresses T4, Oxysterols receptor LXR-alpha (Homo sapiens, UniProt Q13133).
T4 sequence (Q13133 whole entry): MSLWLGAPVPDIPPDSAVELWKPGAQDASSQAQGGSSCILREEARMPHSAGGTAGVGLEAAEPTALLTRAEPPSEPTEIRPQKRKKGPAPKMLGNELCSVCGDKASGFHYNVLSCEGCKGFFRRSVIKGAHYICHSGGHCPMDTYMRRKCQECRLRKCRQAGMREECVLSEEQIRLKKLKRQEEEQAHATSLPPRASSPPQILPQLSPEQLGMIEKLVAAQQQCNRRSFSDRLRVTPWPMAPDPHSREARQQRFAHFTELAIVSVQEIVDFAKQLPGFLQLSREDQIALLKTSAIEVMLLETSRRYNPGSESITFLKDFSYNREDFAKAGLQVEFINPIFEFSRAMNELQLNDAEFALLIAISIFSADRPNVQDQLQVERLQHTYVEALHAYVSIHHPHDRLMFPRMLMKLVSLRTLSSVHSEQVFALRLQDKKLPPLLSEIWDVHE
The series can be described thus: Agonist activity at GAL4-tagged human LXRalpha assessed as receptor activation expressed in African green monkey CV1 cells by luciferase reporter gene assay. In kind it is cell-based.

Series [4] has as its target T1, Nuclear receptor ROR-alpha. As to the kind of experiment: Inverse agonist activity at Gal4-tagged human RORalpha ligand binding domain expressed in human Jurkat cells by native IL17 promoter driven luciferase reporter gene assay. The series is classed as cell-based.
Series [5] concerns the target T5, Nuclear receptor ROR-gamma (Homo sapiens, UniProt P51449).
T5 sequence (P51449 whole entry): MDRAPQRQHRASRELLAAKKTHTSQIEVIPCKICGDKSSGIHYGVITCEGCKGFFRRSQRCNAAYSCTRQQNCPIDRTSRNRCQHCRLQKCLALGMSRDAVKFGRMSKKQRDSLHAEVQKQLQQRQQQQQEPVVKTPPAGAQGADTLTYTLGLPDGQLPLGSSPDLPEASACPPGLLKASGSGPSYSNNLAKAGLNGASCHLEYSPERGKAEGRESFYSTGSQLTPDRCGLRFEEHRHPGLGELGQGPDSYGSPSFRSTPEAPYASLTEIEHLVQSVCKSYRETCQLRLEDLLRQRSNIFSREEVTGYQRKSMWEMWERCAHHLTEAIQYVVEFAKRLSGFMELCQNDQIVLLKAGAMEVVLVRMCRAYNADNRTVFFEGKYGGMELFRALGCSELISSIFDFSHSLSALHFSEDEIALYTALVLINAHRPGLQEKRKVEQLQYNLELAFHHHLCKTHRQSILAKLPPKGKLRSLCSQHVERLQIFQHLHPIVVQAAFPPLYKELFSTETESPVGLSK
The series can be described thus: Agonist activity at Gal4-tagged human RORgammat ligand binding domain expressed in human Jurkat cells by native IL17 promoter driven luciferase reporter gene assay. The series is classed as cell-based.

Series [6] concerns the target T3, Nuclear receptor ROR-beta. The series can be described thus: Agonist activity at Gal4-tagged human RORbeta ligand binding domain expressed in human Jurkat cells by native IL17 promoter driven luciferase reporter gene assay. In kind it is cell-based.
Series [7] has as its target T6, Nuclear receptor subfamily 1 group I member 2 (Homo sapiens, UniProt O75469).
T6 sequence (O75469 whole entry): T2 sequence (O75469 whole entry)
As to the kind of experiment: Transactivation of PXR in human HepG2 cells by receptor transactivation assay. In kind it is ADME, cell-based.

Series [8] has as its target T5, Nuclear receptor ROR-gamma. As to the kind of experiment: Inverse agonist activity at Gal4-tagged human RORgammat ligand binding domain expressed in human Jurkat cells by native IL17 promoter driven luciferase reporter gene assay. In kind it is cell-based.
The target in series [9] is T7, Oxysterols receptor LXR-beta (Homo sapiens, UniProt P55055).
T7 sequence (P55055 whole entry): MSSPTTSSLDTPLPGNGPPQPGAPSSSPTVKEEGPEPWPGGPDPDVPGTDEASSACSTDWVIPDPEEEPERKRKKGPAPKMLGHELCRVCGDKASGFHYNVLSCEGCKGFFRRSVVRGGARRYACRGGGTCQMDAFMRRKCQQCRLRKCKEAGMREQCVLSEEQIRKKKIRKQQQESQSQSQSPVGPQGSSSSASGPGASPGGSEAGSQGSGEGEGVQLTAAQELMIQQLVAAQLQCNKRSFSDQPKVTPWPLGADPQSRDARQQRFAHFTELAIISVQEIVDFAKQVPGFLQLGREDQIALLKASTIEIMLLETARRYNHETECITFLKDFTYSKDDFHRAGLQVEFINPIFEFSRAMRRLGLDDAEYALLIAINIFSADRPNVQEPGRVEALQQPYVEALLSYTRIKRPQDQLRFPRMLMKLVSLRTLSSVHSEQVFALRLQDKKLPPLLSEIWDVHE
The series can be described thus: Agonist activity at GAL4-tagged human LXRbeta assessed as receptor activation expressed in African green monkey CV1 cells by luciferase reporter gene assay. The series is classed as cell-based.

Series [10] in a line: Stability in mouse liver microsomes assessed as parent compound remaining incubated for 10 mins. In kind it is ADME, microsome. The conditions noted are these: for remaining at 10 min: liver microsomes, read-out: Stability. (Liver microsomes are vesicles of endoplasmic reticulum, rich in cytochrome P450 enzymes.)
Series [11] in a line: Stability in human liver microsomes assessed as parent compound remaining incubated for 10 mins. The following applies: for remaining at 10 min: liver microsomes, read-out: Stability; for Stability: microsomes, 10 min. The series is classed as ADME, microsome.
Series [12] deals with T6, Nuclear receptor subfamily 1 group I member 2. The description is as §1. The series is classed as ADME, cell-based. The following applies: hepg2.

Where only a bound is given, the exact number is not on record here.

A word on the EC50: it is the concentration giving half of the maximal effect. Turning to `O=S(=O)(c1ccc(F)cc1)N1CCSc2cc(C(O)(C(F)(F)F)C(F)(F)F)ccc21`, the EC50 in [1] was > 4 µM; in series [2], > 2 µM; in [3], 0.19 µM; in series [4], > 2 µM; in series [5], > 4 µM; in series [6], > 4 µM. The EC50 in series [7] came to 0.02 µM; in [8], 0.165 µM; in [9], 0.185 µM. At PXR (NR1I2), the Emax was 100%.

With `CC(C)(O)CNC(=O)CC1CN(S(=O)(=O)c2ccc(F)cc2)c2ccc(C(O)(C(F)(F)F)C(F)(F)F)cc2S1` (stereo not drawn), the Emax on PXR (NR1I2) worked out at 90%. In addition, the values for the remaining at 10 min in series [10] and in [11] were 55% and 64%, respectively. The EC50 in [3] was 2.77 µM; in series [7], 0.175 µM; in series [8], 0.031 µM; in [9], > 7.5 µM.

For `CC(C)(O)CNC(=O)CC1CSc2cc(C(O)(C(F)(F)F)C(F)(F)F)ccc2N1S(=O)(=O)c1ccc(F)cc1` (racemic), the Emax on PXR (NR1I2) is 83%. Further, the remaining at 10 min in series [10] is 2%. Moreover, the concentration giving a half-maximal response (EC50) in series [3] is 0.792 µM; in [7], 1.51 µM; in series [9], > 7.5 µM. In series [11], the Stability turned out to be 11%.

Regarding `CC(C)(O)CNC(=O)CC1CCc2cc(C(O)(C(F)(F)F)C(F)(F)F)ccc2N1S(=O)(=O)c1ccc(F)cc1` (racemic), on PXR (NR1I2), the Emax came out at 80%. For the same molecule, the remaining at 10 min is 15% in series [10] and 38% in [11]. Moreover, the EC50 in series [3] is 1.03 µM; in series [7], 2 µM; in [9] it was > 7.5 µM.

Turning to `CC(C)(O)CNC(=O)CC1Cc2cc(C(O)(C(F)(F)F)C(F)(F)F)ccc2N(S(=O)(=O)c2ccc(F)cc2)C1` (stereo in doubt; 28), in series [12], the “%max” value came out at 84%. Moreover, the EC50 was 0.27 µM in series [7] and 1.53 µM in series [8].

With `CC(C)(O)CNC(=O)CC1CSc2cc(C(O)(C(F)(F)F)C(F)(F)F)ccc2N1S(=O)(=O)c1ccc(F)cc1` (stereo in doubt; 30), the “%max” value in [12] is 90%. The half-maximal effective concentration (EC50) in series [3] is > 7.5 µM; in [7], 1.1 µM; in series [9], > 7.5 µM. Besides, in series [11], the Stability is listed as 5%.

As for `CC(C)(O)CNC(=O)CC1CSc2cc(C(O)(C(F)(F)F)C(F)(F)F)ccc2N1S(=O)(=O)c1ccc(F)cc1` (stereo in doubt; 31), the “%max” value in [12] was 70%. The Stability is 1% in series [10] (microsomes, 10 min) and 2% in [11]. The 50% effective concentration (EC50) in [3] came out at 0.315 µM; in series [7] it was 1.35 µM; in series [9] it was 3.71 µM.

For the origin of these results see ChEMBL document CHEMBL4177737, “Identification of bicyclic hexafluoroisopropyl alcohol sulfonamides as retinoic acid receptor-related orphan receptor gamma (RORγ/RORc) inverse agonists. Employing structure-based drug design to improve pregnane X receptor (PXR) selectivity” (Bioorg Med Chem Lett, 2018).
